What was measured:
HSP90 = test: Streptavidin-bead immunoprecipitation of biotin-labeled HSP90 in platelets treated with HAC-B; format: cell-based, BALB/c mice
Description: The immunoprecipitation assays based on the streptavidin-biotin system were used to evaluate the engineering efficiency of HAC-B on platelets. The fresh platelets were isolated from the whole blood of BALB/c mice as described above. PBS containing PGE1 ([…]) was adopted to dilute the platelets to a final concentration of 1×10^8 platelets/mL, and a total amount of 2×10^8 platelets (2 mL) was assigned for each sample in one tube. The HAC-B stock solution in DMSO was added to each tube at a final concentration of 2.5, 5, or 10 μM, and then the samples were placed in an orbital shaker with a speed of 50 rpm and incubated for 2 h at room temperature (blank DMSO serve as 0 μM). Meanwhile, other tubes containing the same platelet suspensions were added with HAC-B stock solution at a final concentration of 10 μM, which were shaken at the same conditions for 0.5, 1, 2, 3, or 4 h (the platelet suspension that was centrifugated immediately after HAC-B addition serves as the 0 h group). […] The total proteins in the supernatants were quantified through the BCA assay, and 10 μL of lysate supernatants were saved as the input samples. […]

BRD4 = molecular target: T1, BRD4 (Homo sapiens, UniProt O60885); test: Immunoblot analysis of BRD4 degradation in WT MDA-MB-231 cells after free HAC treatment; format: cell-based
T1 construct: endogenous in cells; host or cells: WT MDA-MB-231 (ATCC)
Excerpt: Immunoblot analysis: Immunoblot analysis was used to evaluate the expression of BRD4, HSP90, HSP90a, and PD-L1 in 4T1, WT MDA-MB-231, HSP90α-KO MDA-MB-231 or PEA-10 cells after various treatments and also served as the detection method for IP or co-IP experiments. The procedures for preparing IP or co-IP samples were indicated in the relevant experimental parts.
Sample preparation for various cancer cells after free HAC treatment: Various cells, including 4T1, WT MDA-MB-231, HSP90α-KO MDA-MB-231, or PEA-10 cells, were seeded in 6-well culture plates with a density of 5×10^4 cells in each well and cultured for 24 h. Then, if HAI pretreatment was performed, the cells were incubated in the HAI-containing blank medium at different concentrations for 2 h and washed with PBS twice before the following treatments. The medium in the corresponding wells was replaced with 1 mL of blank medium containing the DMSO vehicle, HACs, or the combinations of various free ligands at the predetermined concentrations. After incubation for the indicated time points, cells were washed with PBS and lysed on ice with the relevant lysis buffer containing PMSF (1 mM) and the phosphatase inhibitor cocktail for 30 min. As for the conditioned medium (CM), the culturing complete medium of the corresponding cancer cells in each well was collected after 24-h incubation and subjected to centrifugation at 2000 rpm for 5 min to obtain the supernatant. The filtrate of the supernatants was collected following filtration over a 0.45 μm filter, serving as the CM. […]
General procedures for immunoblot analysis: After a 30-min lysis, the lysates were centrifuged at 10,000 g for 10 minutes at 4° C., and the corresponding supernatants were collected, followed by quantification of the total proteins in the supernatant through the BCA assay. […] Finally, the bands were treated with electrochemiluminescence (ECL) western blot substrate, detected by the iBright™ imaging system and quantified with ImageJ software. […]

SMILES: N#CCN(C(=O)CCCC[C@@H]1SC[C@@H]2NC(=O)N[C@@H]21)S(=O)(=O)c1ccc(C(=O)NCCCn2c(Sc3cc4c(cc3I)OCO4)nc3c(N)ncnc32)cc1 [HAC-B, N-(3-(6-amino-8-((6-iodobenzo[d][1,3]dioxol-5-yl)thio)-9H-purin-9-yl)propyl)-4-(N-(cyanomethyl)-N-(5-((3aS,4S,6aR)-2-oxohexahydro-1H-thieno[3,4-d]imidazol-4-yl)pentanoyl)sulfamoyl)benzamide]
- concentration dependence of HSP90 tethering in platelets (HSP90; 2 h): in a concentration-dependent manner
- incubation time at which biotin labeling of HSP90 in platelets approaches a maximum (HSP90; HAC-B 10 μM): ~2 h

SMILES: Cc1sc2c(c1C)C(c1ccc(Cl)cc1)=N[C@@H](CC(=O)NCc1cn(CCCC(=O)N(CC#N)S(=O)(=O)c3ccc(C(=O)NCCCn4c(Sc5cc6c(cc5I)OCO6)nc5c(N)ncnc54)cc3)nn1)c1nnc(C)n1-2 [iHAC, (S)—N-(3-(6-amino-8-((6-iodobenzo[d][1,3]dioxol-5-yl)thio)-9H-purin-9-yl)propyl)-4-(N-(4-(4-((2-(4-(4-chlorophenyl)-2,3,9-trimethyl-6H-thieno[3,2-f][1,2,4]triazolo[4,3-a][1,4]diazepin-6-yl)acetamido)methyl)-1H-1,2,3-triazol-1-yl)butanoyl)-N-(cyanomethyl)sulfamoyl)benzamide]
- shape of concentration response of BRD4 degradation (BRD4; at relatively lower concentrations, reversed at 20 μM): hook effect
- time dependence of BRD4 downregulation (BRD4; at the two effective concentrations): in a time-dependent manner

From US20250327028A1, “ENGINEERED PLATELETS AS TARGETED PROTEIN DEGRADERS” (Wisconsin Alumni Research Foundation, priority 2024, published 2025)
